Results on twelve molecules are retold here after ChEMBL document CHEMBL1125871, “Inhibitors of cholesterol biosynthesis. 4. trans-6-[2-(substituted-quinolinyl)ethenyl/ethyl]tetrahydro-4-hydroxy-2 H-pyran-2-ones, a novel series of HMG-CoA reductase inhibitors” (J Med Chem, 1991).

One experiment is filed under the species Rattus norvegicus. The experiment in a line: (§1) Compound was tested for its relative Cholesterol Synthesis Inhibition as compared to compactin in rats. The experiment is classed as functional.
In turn, `Cc1cnc2ccccc2c1/C=C/[C@@H]1C[C@@H](O)CC(=O)O1` returned a Relative inhibition below 1.

`COc1ccc2nc(C(C)C)c(/C=C/[C@@H]3C[C@@H](O)CC(=O)O3)c(-c3ccc(F)cc3)c2c1` returned a Relative inhibition of 100.

Molecule `CN(C)c1nc2ccccc2c(-c2ccc(F)cc2)c1/C=C/[C@@H]1C[C@@H](O)CC(=O)O1` yielded a Relative inhibition of 13.2.

Molecule `CC(C)c1nc2ccccc2c(-c2ccc(F)cc2)c1CC[C@@H]1C[C@@H](O)CC(=O)O1` had a Relative inhibition below 1.

Turning to `CC(C)c1nc2ccc(Cl)cc2c(-c2ccc(F)cc2)c1/C=C/[C@@H]1C[C@@H](O)CC(=O)O1`, the Relative inhibition was 100.

On to `CC(C)c1nc2ccccc2c(-c2ccc(F)cc2)c1/C=C/[C@@H]1C[C@@H](O)CC(=O)O1`, for which the Relative inhibition is recorded as 75.8.

As to `Cc1nc2ccc(Cl)cc2c(-c2ccc(F)cc2)c1/C=C/[C@@H]1C[C@@H](O)CC(=O)O1`, the Relative inhibition was 6.3.

Turning to `CC(C)c1nc2ccc(F)cc2c(-c2ccc(F)cc2)c1/C=C/[C@@H]1C[C@@H](O)CC(=O)O1` (stereo in doubt; 8d), the Relative inhibition was 77.6.

Regarding `CC[C@H](C)C(=O)O[C@H]1C[C@@H](C)C=C2C=C[C@H](C)[C@H](CC[C@@H]3C[C@@H](O)CC(=O)O3)[C@H]21` [LOVASTATIN], the Relative inhibition came to 118.

Tested on in the next experiment: not listed separately
The experiment is described as §1. The experiment is classed as functional.
In the case of `CC(C)c1c(/C=C/[C@@H]2C[C@@H](O)CC(=O)O2)c(-c2ccc(F)cc2)c2cc(F)ccc2[n+]1[O-]`, the Relative inhibition amounted to 112.

The target in another experiment is T1, 3-hydroxy-3-methylglutaryl-coenzyme A reductase (Rattus norvegicus, UniProt P51639).
T1 sequence (P51639 whole entry): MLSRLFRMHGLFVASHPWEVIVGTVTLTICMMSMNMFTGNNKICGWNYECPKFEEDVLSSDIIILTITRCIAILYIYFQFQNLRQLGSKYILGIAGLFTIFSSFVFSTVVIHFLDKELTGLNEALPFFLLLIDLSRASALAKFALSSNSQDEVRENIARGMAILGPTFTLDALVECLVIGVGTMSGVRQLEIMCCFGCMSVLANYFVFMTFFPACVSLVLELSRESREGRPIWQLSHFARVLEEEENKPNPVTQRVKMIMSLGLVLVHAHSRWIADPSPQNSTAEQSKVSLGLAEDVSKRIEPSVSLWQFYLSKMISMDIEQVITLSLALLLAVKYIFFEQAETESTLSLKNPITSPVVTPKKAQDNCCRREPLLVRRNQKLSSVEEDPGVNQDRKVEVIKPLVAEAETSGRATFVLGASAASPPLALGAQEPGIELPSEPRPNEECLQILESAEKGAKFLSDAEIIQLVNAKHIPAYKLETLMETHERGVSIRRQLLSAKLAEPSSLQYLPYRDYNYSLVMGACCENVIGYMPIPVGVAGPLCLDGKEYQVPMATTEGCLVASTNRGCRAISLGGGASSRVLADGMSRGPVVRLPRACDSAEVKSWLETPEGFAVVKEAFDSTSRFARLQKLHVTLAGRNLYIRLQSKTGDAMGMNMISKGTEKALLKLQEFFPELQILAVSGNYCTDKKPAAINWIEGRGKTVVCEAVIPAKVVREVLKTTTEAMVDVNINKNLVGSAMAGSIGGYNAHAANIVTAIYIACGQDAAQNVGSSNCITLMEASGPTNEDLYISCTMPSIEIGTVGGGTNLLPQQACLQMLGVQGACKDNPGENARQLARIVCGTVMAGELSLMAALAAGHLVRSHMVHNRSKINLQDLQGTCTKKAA
In words: Compound was evaluated for the inhibition of HMG-CoA reductase (COR) in rats.
Turning to `COc1ccc2nc(C(C)C)c(/C=C/[C@@H]3C[C@@H](O)CC(=O)O3)c(-c3ccc(F)cc3)c2c1`, the IC50 – broadly, the concentration that gives 50% inhibition – is 53 nM.

`CC(C)c1c(/C=C/[C@@H]2C[C@@H](O)CC(=O)O2)c(-c2ccc(F)cc2)c2cc(F)ccc2[n+]1[O-]` came in with an IC50 of 79 nM.

As to `CN(C)c1nc2ccccc2c(-c2ccc(F)cc2)c1/C=C/[C@@H]1C[C@@H](O)CC(=O)O1`, 350 nM corresponded to half-maximal inhibition (IC50).

Regarding `CC(C)c1nc2ccc(Cl)cc2c(-c2ccc(F)cc2)c1/C=C/[C@@H]1C[C@@H](O)CC(=O)O1`, inhibition was half-maximal at 25 nM (IC50).

`CC(C)c1nc2ccccc2c(-c2ccc(F)cc2)c1/C=C/[C@@H]1C[C@@H](O)CC(=O)O1` displayed an IC50 of 32 nM.

On to `Cc1nc2ccc(Cl)cc2c(-c2ccc(F)cc2)c1/C=C/[C@@H]1C[C@@H](O)CC(=O)O1`, for which the IC50 was 720 nM.

In the case of `CC(C)c1nc2ccc(F)cc2c(-c2ccc(F)cc2)c1/C=C/[C@@H]1C[C@@H](O)CC(=O)O1` (stereo in doubt; 8d), the IC50 was 200 nM.

Regarding `CC[C@H](C)C(=O)O[C@H]1C[C@@H](C)C=C2C=C[C@H](C)[C@H](CC[C@@H]3C[C@@H](O)CC(=O)O3)[C@H]21` [LOVASTATIN], the IC50 was determined as 28 nM.

A further experiment is filed under the species Rattus norvegicus. The experiment in a line: Compound was evaluated for the percentage of acute inhibition of cholesterol synthesis (AICS) in male rats through peroral rout. More on the design: concentration or dose not given beside the values. It counts as functional.
For `Cc1cnc2ccccc2c1/C=C/[C@@H]1C[C@@H](O)CC(=O)O1`, the Inhibition (commonly the relative decrease from the control value, in per cent) came out at 42%.

Molecule `COc1ccc2nc(C(C)C)c(/C=C/[C@@H]3C[C@@H](O)CC(=O)O3)c(-c3ccc(F)cc3)c2c1` had an Inhibition of 60%.

Turning to `CC(C)c1c(/C=C/[C@@H]2C[C@@H](O)CC(=O)O2)c(-c2ccc(F)cc2)c2cc(F)ccc2[n+]1[O-]`, the Inhibition came to 47%.

Turning to `CN(C)c1nc2ccccc2c(-c2ccc(F)cc2)c1/C=C/[C@@H]1C[C@@H](O)CC(=O)O1`, the Inhibition is recorded as 52%.

In turn, `CC(C)c1nc2ccc(Cl)cc2c(-c2ccc(F)cc2)c1/C=C/[C@@H]1C[C@@H](O)CC(=O)O1` had an Inhibition of 61%.

Regarding `CC(C)c1nc2ccccc2c(-c2ccc(F)cc2)c1/C=C/[C@@H]1C[C@@H](O)CC(=O)O1`, the Inhibition is 70%.

The molecule `Cc1nc2ccc(Cl)cc2c(-c2ccc(F)cc2)c1/C=C/[C@@H]1C[C@@H](O)CC(=O)O1` gave an Inhibition of 18%.

For the molecule `CC(C)c1nc2ccc(F)cc2c(-c2ccc(F)cc2)c1/C=C/[C@@H]1C[C@@H](O)CC(=O)O1` (stereo in doubt; 8d), the Inhibition amounted to 68%.

In turn, `CC(C)c1nc2ccc(F)cc2c(-c2ccc(F)cc2)c1/C=C/[C@@H]1C[C@@H](O)CC(=O)O1` (stereo in doubt; 17) yielded an Inhibition of 69%.

Consider `CC[C@H](C)C(=O)O[C@H]1C[C@@H](C)C=C2C=C[C@H](C)[C@H](CC[C@@H]3C[C@@H](O)CC(=O)O3)[C@H]21` [LOVASTATIN], for which the Inhibition was determined as 72%.

`CC[C@H](C)C(=O)O[C@H]1CCC=C2C=C[C@H](C)[C@H](CC[C@@H]3C[C@@H](O)CC(=O)O3)[C@H]21` [MEVASTATIN] came in with an Inhibition of 36%.

For a further experiment, the species on record is Rattus norvegicus. The experiment in a line: Compound was tested for its Cholesterol Synthesis Inhibition ability in rats. The experiment is classed as functional, organism-based.
The molecule `Cc1cnc2ccccc2c1/C=C/[C@@H]1C[C@@H](O)CC(=O)O1` displayed a half-maximal inhibitory concentration (IC50) above 1000 nM.

`COc1ccc2nc(C(C)C)c(/C=C/[C@@H]3C[C@@H](O)CC(=O)O3)c(-c3ccc(F)cc3)c2c1` had an IC50 of 13 nM.

The molecule `CC(C)c1c(/C=C/[C@@H]2C[C@@H](O)CC(=O)O2)c(-c2ccc(F)cc2)c2cc(F)ccc2[n+]1[O-]` came in with a concentration for half-maximal inhibition (IC50) of 18 nM.

Molecule `CN(C)c1nc2ccccc2c(-c2ccc(F)cc2)c1/C=C/[C@@H]1C[C@@H](O)CC(=O)O1` had an IC50 of 47 nM.

In turn, `CC(C)c1nc2ccccc2c(-c2ccc(F)cc2)c1CC[C@@H]1C[C@@H](O)CC(=O)O1` had an IC50 above 1000 nM.

Molecule `CC(C)c1nc2ccc(Cl)cc2c(-c2ccc(F)cc2)c1/C=C/[C@@H]1C[C@@H](O)CC(=O)O1` came in with a 50% inhibitory concentration (IC50) of 32 nM.

`CC(C)c1nc2ccccc2c(-c2ccc(F)cc2)c1/C=C/[C@@H]1C[C@@H](O)CC(=O)O1` gave a 50% inhibitory concentration (IC50) of 42 nM.

As for `Cc1nc2ccc(Cl)cc2c(-c2ccc(F)cc2)c1/C=C/[C@@H]1C[C@@H](O)CC(=O)O1`, the half-maximal inhibitory concentration (IC50) was 400 nM.

`CC(C)c1nc2ccc(F)cc2c(-c2ccc(F)cc2)c1/C=C/[C@@H]1C[C@@H](O)CC(=O)O1` (stereo in doubt; 8d) registered an IC50 of 50 nM.

Regarding `CC[C@H](C)C(=O)O[C@H]1C[C@@H](C)C=C2C=C[C@H](C)[C@H](CC[C@@H]3C[C@@H](O)CC(=O)O3)[C@H]21` [LOVASTATIN], 25 nM corresponded to half-maximal inhibition (IC50).

The molecule `CC[C@H](C)C(=O)O[C@H]1CCC=C2C=C[C@H](C)[C@H](CC[C@@H]3C[C@@H](O)CC(=O)O3)[C@H]21` [MEVASTATIN] yielded an IC50 of 30 nM.
